{"source": "patent US20250152387A1", "about": "“COBALT-CHROMIUM ALLOY STENT AND DRUG ELUTING STENT” (AmsinoMed Medical Co., Ltd, priority 2022, published 2025)", "key": {"[1]": {"system": "vascular endothelial cells (HUVECs)", "experiment": "CCK-8 cell viability assay on vascular endothelial cells", "assay_type": "cell-based", "conditions": "24 h and 48 h", "protocol": "The range of drug concentrations at which ATO and TAC were friendly to vascular endothelial cell viability was determined at the cellular level.\nThe changes in the cell viability of vascular endothelial cells (HUVECs) under the action of ATO, TAC and rapamycin (RAP) at different concentrations for 24 h and 48 h were studied by CCK-8 cell viability assay, respectively."}, "[2]": {"system": "vascular smooth muscle cells (HASMCs)", "experiment": "CCK-8 cell viability assay on vascular smooth muscle cells", "assay_type": "cell-based", "conditions": "different concentrations, 24 h and 48 h", "protocol": "The range of drug concentrations at which ATO and TAC were friendly to vascular smooth muscle cell viability was determined at the cellular level.\nThe changes in the cell viability of vascular smooth muscle cells (HASMCs) under the action of ATO, TAC and rapamycin (RAP) at different concentrations for 24 h and 48 h were studied by CCK-8 cell viability assay, respectively."}, "[3]": {"system": "IL-6, IL-10 and TNF-α gene expression in HUVECs", "experiment": "PCR of inflammatory factor gene expression in LPS-induced HUVECs", "assay_type": "cell-based", "conditions": "10 nM; HUVECs induced with LPS 1 μg/ml for 6 h", "protocol": "The range of effective concentrations at which TAC inhibited the inflammatory response of vascular endothelial cells was verified at the cellular level.\nAfter induction of HUVECs with LPS at a concentration of 1 μg/ml for 6 h, the inhibitory effects of TAC at different concentrations on the inflammatory response of HUVECs were detected by PCR."}, "[4]": {"experiment": "Drug release from coated stents soaked in PBS solution in a shaker", "assay_type": "physicochemical", "conditions": "at 1 d; release curve obtained by adjustment", "description": "The process of testing the release properties of tacrolimus of the present invention comprises: soaking drug stents in a PBS solution, placing the stents in a shaker (shaking speed of 80 r/min), and taking out the stents at the corresponding time points (1 d, 7 d, 14 d, 21 d, and 28 d) (at least 3 stents for each time point), and testing the concentration of tacrolimus. The content of tacrolimus can be tested using the detection method in “Determination of Tacrolimus Tablets by HPLC” (Lv, Yongchao, Song, Yucai; Journal of Pharmaceutical Research 2013 Vol. 32, No. 4, page 1).\nFor the drug release properties of the present invention, the release process comprises: soaking drug stents in a PBS solution, placing the stents in a shaker (shaking speed of 100 r/min), and taking out 5 ml of the solution at the corresponding time points (1 d, 7 d, 14 d, 21 d, and 28 d) (at least 3 stents for each time point) for testing. The release of the drug arsenic trioxide is detected using the method disclosed in “Preparation and the Release Characteristic in vitro of Arsenic Trioxide Albumin Nanospheres” (Zhou, Jie, Zeng, Fuqing, Gao, Xiang, Xie, Shusheng, Wei, Shuli, Chinese Journal of New Drugs, pages 54-57)."}}}
{"smiles": "C=CC[C@@H]1/C=C(\\C)C[C@H](C)C[C@H](OC)[C@H]2O[C@@](O)(C(=O)C(=O)N3CCCC[C@H]3C(=O)O[C@H](/C(C)=C/[C@@H]3CC[C@@H](O)[C@H](OC)C3)[C@H](C)[C@@H](O)CC1=O)[C@H](C)C[C@@H]2OC", "note": "[TAC, tacrolimus]", "values": [{"measurement": "concentration with no significant effect on cell viability", "setting": "[1]", "result": "≤ 50", "unit": "nM"}, {"measurement": "effect on the viability of vascular smooth muscle cells", "setting": "[2]", "result": "no significant inhibitory effect"}, {"measurement": "gene expression levels of cellular inflammatory factors IL-6, IL-10 and TNF-α", "setting": "[3]", "result": "effectively reduce"}, {"measurement": "tacrolimus released", "setting": "[4]", "result": "≥ 40", "unit": "%"}]}
{"smiles": "CO[C@H]1C[C@@H]2CC[C@@H](C)[C@@](O)(O2)C(=O)C(=O)N2CCCC[C@H]2C(=O)O[C@H]([C@H](C)C[C@@H]2CC[C@@H](O)[C@H](OC)C2)CC(=O)[C@H](C)/C=C(\\C)[C@@H](O)[C@@H](OC)C(=O)[C@H](C)C[C@H](C)/C=C/C=C/C=C/1C", "note": "[RAP, rapamycin]", "values": [{"measurement": "concentration with no significant effect on cell viability", "setting": "[1]", "result": "≤ 100", "unit": "nM"}]}
